From patent US7097967B2, “Method of predicting drug-food interaction” (LG Life Sciences Ltd., priority 2002, dated 2006)
pIC50, pKi: −log10 of the molar value. Where a name gives a salt, the structure may show the parent alone. Read-outs that look alike come from different tables or passages of the source. Values belong to the compound of their own block, whether it stands above or below them.

Legend:
[1] = Effect of composition of food on bioavailability of Drug A in dog; type: in vivo; settings: dogs; for bioavailability: dog, plasma, po
Protocol: A solution in which 5 g of starch dispersed in 40 ml of water, 40 ml of egg albumin, and a solution in which 5 g of Gelucire® (44/14) dispersed in 40 ml of water, respectively, were fed to two dogs […] before administration of Drug A. These dogs (8–11 kg, Covance Research Product corporation, MI, U.S.A) were bred in a standard laboratory cage, adjusted for a temperature (22±3° C.) and humidity (50±20%), with feed and water available ad libitum. The dogs were fasted for 18–20 hours prior to this experiment. The test group for ascertaining the effect of foods was provided with foods 1 hour before administration of a drug, and the drug was administered after ingestion of foods. At a previously fixed time after administration, 500 μl of blood was gathered from the cephalic vein using the heparinized syringe, and the blood plasma was separated by a centrifuge, and then the plasma concentration of the drug was measured by HPLC analysis.
A Shiseido Capcell-Pak C18 reverse phase column was used for the drug-detection, employing a Shimadzu HPLC system (Class-LC10A system control software, CBM-10A communication bus module, two LC-10AD pumps, SIL-10AXL autoinjector with sample cooler, SPD-10AV ultraviolet detector). The mobile phase was acetonitrile : 0.1% trifluoroacetic acid /5 mM sodium dodecyl sulfate=47 : 53 and the flow rate was 1 ml/min. Data, obtained after oral administration, was expressed in a graph of drug concentration versus time, and applied to the non-compartment model using Win-Nonlin program (Scientific Consultion Corporation, NC, U.S.A.), whereby pharmacokinetic parameters such as a half-life (t1/2), maximum concentration (Cmax), time of the maximum concentration (Tmax), AUCinf, AUClast, and bioavailability (BA) were calculated. AUC was obtained by applying the trapezoidal rule-extrapolation method, and BA was calculated by using the formula (AUCPO×DoseIV)/(AUCIV×DosePO). The result of the experiment is disclosed in FIG. 1 and TABLE 2.

[2] = biological target: T1, Trypsin (Bos taurus, UniProt P00760); experiment: Measurement of activities of Drug A and its prodrugs to trypsin (chromogenic substrate, Ki); type: biochemical; settings: tris buffer pH 7.8, N-benzoyl-Val-Gly-Arg-p-nitroanilide substrate, room temperature; read-out: Trypsin inhibition constant
T1 construct: gene PRSS1
T1 sequence (P00760 24-246): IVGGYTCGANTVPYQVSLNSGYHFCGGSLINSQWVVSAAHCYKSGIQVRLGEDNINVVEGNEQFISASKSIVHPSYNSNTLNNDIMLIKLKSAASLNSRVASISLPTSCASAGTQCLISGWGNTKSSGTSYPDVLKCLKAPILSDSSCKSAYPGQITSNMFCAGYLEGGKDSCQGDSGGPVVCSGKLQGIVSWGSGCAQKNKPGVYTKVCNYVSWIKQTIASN
Protocol: 140 μl of 0.1 M tris buffer solution (pH 7.8) containing 150 mM NaCl and 0.1% PEG 8000 (PolyEthylene Glycol, Molecular Weight: about 8,000) was pipetted into a microplate. A substrate solution was prepared by dissolving N-benzoyl-Val-Gly-Arg-p-nitroanilide hydro-chloride in DMSO to a concentration of 10 mM, and then diluting the resultant with the above buffer solution to a concentration of 0.5 mM. 20 μl of 0.5 mM substrate solution obtained thus was added to the microplate. An inhibitor solution was prepared by dissolving the inhibitor compound according to the present invention in DMSO to make the concentration of 10 mM, and then diluting the resultant with the above buffer solution to make the concentrations of 100000 nM, 10000 nM, 1000 nM, 100 nM, 10 nM, 1 nM, 0.1 nM, 0.01 nM and 0 nM, respectively. 20 μl of each inhibitor solution was adjusted to whole volume of 180 μl and then added to the microplate.
Trypsin which had been dissolved in 0.1 N HCl solution was added to the above tris buffer, just before the experiment, to make the concentration of 1 μg/ml, and 20 μl of solution obtained thus was added to the microplate containing the reaction solution at the room temperature. The amount of para-nitroaniline produced for 10 minutes after addition of enzymes was monitored by the light. The absorbance was plotted against the reaction time. Such graphs were obtained by performing the above experiment on the various concentrations of inhibitor.
Activities of Drug A and several prodrugs to trypsin were measured by determining the dissociation constant Ki, using the following formula according to the method described in Methods in Enzymology (V.80 p341–361; Biochemistry 27 p2144–2151,1988) Ki=[E]·[I]/[EI] • [E]: concentration of enzyme not bound to inhibitor • [I]: concentration of inhibitor not bound to enzyme • [EI]: concentration of binding product of enzyme and inhibitor
Such dissociation constant can be obtained by reacting with para-nitroanilide, which is chromogenic upon hydrolysis by the action of trypsin, and then measuring the extent of chromogenicity with time by spectroscopy.
The initial velocity, Vi, was obtained from the best-fit slope for the first 30 seconds after the reaction start time for each plot, and then a graph of the concentration of inhibitor versus the inverse of the initial velocity (1/Vi) was constructed. Thereafter, the linear function, which satisfies the graph, was calculated, and then Ki was calculated from the x-intercept of the above function using the enzymatic reaction formula. Km used in this calculation was obtained by changing the concentration of substrate at the constant enzyme concentration of […].

[3] = cited from earlier work
[4] = dog, cited from earlier work
[5] = biological target: thrombin (Homo sapiens, UniProt P00734); settings: cited from earlier work
[6] = biological target: T1, Trypsin; settings: cited from earlier work
[7] = rats, oral; cited from earlier work
[8] = human subjects, oral; cited from earlier work

bioavailability ([1]; in fasting state): 43% | bioavailability ([1]; oral, after intake of Gelucire (lipid)): 20% | bioavailability ([1]; oral, after intake of egg albumin): 13% | bioavailability ([1]; oral, after intake of starch): 41% | bioavailability after ingestion of foods ([1]; after ingestion of foods): decreased markedly | pKi [2]: 9.52
SMILES: N=C(N)c1ccc(CNC(=O)[C@@H]2CCCN2C(=O)[C@H](NCC(=O)O)C(c2ccccc2)c2ccccc2)s1 [Drug A, (2S)-N-{5-[amino(imino)methyl]-2-thienyl}methyl-1-{(2R)-2-[(carboxylmethyl)amino]-3,3-diphenylpropanol}-2-pyrrolidincarboxamide]

pKi [2]: 6.17
SMILES: CCOC(=O)CN[C@@H](C(=O)N1CCC[C@H]1C(=O)NCc1ccc(/C(N)=N/C(=O)OCC(C)C)s1)C(c1ccccc1)c1ccccc1 [Prodrug 1]

pKi [2]: 5.26
SMILES: CCOC(=O)CN[C@@H](C(=O)N1CCC[C@H]1C(=O)NCc1ccc(/C(N)=N/O)s1)C(c1ccccc1)c1ccccc1 [Prodrug 3]

Further lines, the compound ahead of its results:

SMILES: CC(C)(C)NC(=O)[C@@H]1CN(Cc2cccnc2)CCN1C[C@@H](O)C[C@@H](Cc1ccccc1)C(=O)N[C@H]1c2ccccc2C[C@H]1O [Indinavir, [1(1S,2R), 5(S)]-2,3,5-trideoxy-N-(2,3-dihydro-2-hydroxy-1H-inden-1-yl)-5-[2-[[(1,1-dimethylethylaminocarbonyl)-4-(3-pyridinylmethyl)-1-piperazinyl]-2-(phenylmethyl)-D-erytho-pentonamide sulfate (1:1) salt]
absorption rate when administered together with foods [3]: absorption rate decreases

SMILES: CCOC(=O)CN[C@@H](C(=O)N1CCC[C@H]1C(=O)NCc1ccc(/C(N)=N/OC(C)=O)s1)C(c1ccccc1)c1ccccc1 [Prodrug 2]
pKi [2]: 4.67

SMILES: CCOC(=O)CN[C@@H](C(=O)N1CCC[C@H]1C(=O)NCc1ccc(/C(N)=N/C(=O)OCC2CCCCC2)s1)C(c1ccccc1)c1ccccc1 [Prodrug 4]
pKi [2]: 4.68

SMILES: CC(=O)N[C@H](Cc1ccccc1)C(=O)N(CC(=O)N[C@@H](CCCN=C(N)N)B(O)O)C1CCCC1 [Prodrug S-18326, Ac-D-Phe-N-cyclopentylglycine-boroArg-OH]
bioavailability ([4]; after meals): 6% | bioavailability ([4]; fasting state): 27% | pIC50 [5]: 8.44 | pIC50 [6]: 7.70

SMILES: NCCCC[C@H](NC(=O)C1(C(=O)NCCc2ccccc2)CCCC1)B(O)O [Prodrug S-31922, 5-amino-1-R-(1phenethyl-carbamoyl-cyclopentanecaraboxamide) pentyl boronic acid]
bioavailability ([4]; after meals): 22% | bioavailability ([4]; fasting state): 36% | pIC50 [5]: 7.37 | pIC50 [6]: 6.47

SMILES: N=C(N)NCCCC(C=O)NC(=O)C1CCCN1C(=O)C1NCCC2CCCCC21 (stereo not drawn) [R-Piq-Pro-Arg-H]
bioavailability after administration of foods [7]: decreases remarkably | bioavailability after intake of foods [8]: decreases remarkably
